In PubChem BioAssay (NCI):
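1) Cells in 96-well plates. 2) Compound, 48 h, 5 concentrations. 3) Linear interpolation between surrounding doses. 4) Unreached endpoint = highest concentration. The concentration for 50% growth inhibition is given as GI50. TGI marks complete inhibition of growth.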

Assays:
Assay in all cases: NCI tumour cell line growth inhibition, 48 h
786-0 renal = test system: 786-0 renal
K-562 leukemia = test system: K-562 leukemia
MALME-3M melanoma = test system: MALME-3M melanoma
NCI-H460 lung = test system: NCI-H460 lung
SF-268 CNS = test system: SF-268 CNS
SK-MEL-28 melanoma = test system: SK-MEL-28 melanoma
UACC-257 melanoma = test system: UACC-257 melanoma
CCRF-CEM leukemia = test system: CCRF-CEM leukemia
HCC-2998 colon = test system: HCC-2998 colon
DU-145 prostate = test system: DU-145 prostate

Compound	GI50 (786-0 renal) [µM]	TGI (786-0 renal) [µM]	GI50 (K-562 leukemia) [nM]	TGI (K-562 leukemia) [µM]	GI50 (MALME-3M melanoma) [µM]	TGI (MALME-3M melanoma) [µM]	GI50 (NCI-H460 lung) [µM]	TGI (NCI-H460 lung) [µM]	GI50 (SF-268 CNS) [µM]	TGI (SF-268 CNS) [µM]	GI50 (SK-MEL-28 melanoma) [µM]	TGI (SK-MEL-28 melanoma) [µM]	GI50 (UACC-257 melanoma) [µM]	TGI (UACC-257 melanoma) [µM]	TGI (CCRF-CEM leukemia) [µM]	TGI (HCC-2998 colon) [µM]	TGI (DU-145 prostate) [µM]	GI50 (CCRF-CEM leukemia) [nM]	GI50 (DU-145 prostate) [µM]	GI50 (HCC-2998 colon) [µM]
O=C([CH-]C(=O)c1ccccc1)c1ccccc1.O=C([CH-]C(=O)c1ccccc1)c1ccccc1.O=C([CH-]C(=O)c1ccccc1)c1ccccc1.[Cl-].[Zr+4]	18.6	70.3	8020	25.5	19.5	60.4	10.8	53.8	15.8	> 100	13.2	36.7	17.2	73.1						
COc1ccc2c(c1)[n+](=O)c(C(=O)CC(=O)C(=O)Nc1cccc(C)c1C)c(C)n2[O-]		> 100		> 100		> 100		> 100		> 100		> 100		> 100	> 100	> 100				
Cc1ccccc1N=Nc1c(-c2ccccc2)nn(C(=O)CC(=O)Nc2cccc(Cl)c2)c1-c1ccccc1		> 31.6		> 31.6		> 100		> 31.6		> 31.6		> 31.6		2.58	25.4	> 31.6				
S=C(CSc1ccccc1)Nc1cccc2ccccc12		> 100		> 100		> 100		> 100		> 100		> 100		68.3			> 100			
Cc1cc2c(cc1CO)N1Cc3cc(C)c(CO)cc3N(C2)C1		> 100		> 100				> 100		> 100		> 100			> 100	> 100				
O=C(Oc1ccccc1)C(Br)C(Br)c1ccccc1 (stereo unspecified)	4.59	16.8	1950	9			14.5	29.8	4.15	15.2	2.64	7.11	2.06	4.8	6.68	24.7	9.38	1390	3.18	11.8
C=Cc1c(C)c2cc3[nH]c(cc4nc(cc5nc(cc1[nH]2)C(C)=C5CCC(=O)N(CC)CC)C(CCC(=O)N(CC)CC)=C4C)c(C)c3C=C		> 100		> 100		> 100		> 100				> 100		> 100	> 100	> 100				
O=C(NC(=O)c1cn(CCN2CCN(C(=O)NCCCCCCNC(=O)N3CCN(CCn4cc(C(=O)NC(=O)OCc5ccccc5)c(=O)[nH]c4=O)CC3)CC2)c(=O)[nH]c1=O)OCc1ccccc1		> 100		> 100		> 100		> 100				> 100		> 100	> 100					
O=C(/C(=N/Nc1ccccc1)c1ccc([N+](=O)[O-])cc1)c1ccc([N+](=O)[O-])cc1		> 100		> 100		> 100		> 100				> 100		> 100		> 100				
CCC(C)(O)c1cn(-c2ccc(S(=O)(=O)O)cc2)nn1 (stereo unspecified)		> 100		> 100		> 100		> 100		> 100		> 100		> 100	> 100	> 100				
CC1(C)C(=O)C(=Cc2ccco2)C1=O		> 100		> 100		> 100		> 100		> 100		> 100		> 100	> 100	> 100				
c1ccc(C2CC(c3ccc4ccccc4c3)=Nc3ccccc3S2)cc1 (stereo unspecified)		30.2		59.3		35.8		29.1		31.1		33.1		34.9	99.7	24.8				
CCCCN1C(=O)/C(=c2\sc3n(c2=O)C2C(NN=3)N(CC)C(=O)N2CC)c2ccccc21 (stereo unspecified)	1.14	4.18	542	> 100	0.639	3.27			0.959	4.71					> 100	3.81		1810		1.38
O=c1c2cccnc2ncn1CCCN1CCCC1		> 100		> 100				> 100		> 100					> 100					
CC(=O)OC1C(O[C@H]2CC[C@]34O[C@]35CC[C@]3(C)C(C6(C)CC[C@@H](C(C)(C)O)O6)[C@@H](O)CC3(C)[C@@H]5CC(OC3OC(CO)C(O)C(O)C3O)C4C2(C)C)OCC(O)C1O (stereo partly specified)		> 60.9		> 74.8		> 100		> 100		> 100		> 100		> 100	> 31.6	> 100				
COc1cc2c3c(c1OC)C(=O)C=C3N(S(=O)(=O)c1ccc(C)cc1)CC2		> 100		> 100		> 100		> 100		> 100		> 100		> 100	> 100	> 100				
C/C(CC(=O)Nc1ccc(NC(=O)C/C(C)=N\NC(N)=O)cc1)=N/NC(N)=O		> 100		> 100		> 100		> 100		> 100		> 100		> 100	> 100	> 100				
C=C(CO)CC(/C=C(\C)CC/C=C(\C)CCl)OC(C)=O (stereo unspecified)		> 100		> 100				> 100		> 100		> 100			> 100	> 100				
CCCCCCCCCCOC(=O)c1cc[n+](C)cc1		31.7		34.2		30.7		38.8		35.3		31.3		34	37.7					
O=C(N/C(=C/c1cccc([N+](=O)[O-])c1)c1nc2ccc(Cl)cc2[nH]1)c1ccccc1		> 100		46.9		36.4		51.7		> 100		> 100		> 100	48	70.4				
O=c1[nH]c(=O)n(C2CC(O)C(CO)O2)cc1COCC(F)(F)F (stereo unspecified)		> 100		> 100		> 100		> 100		> 100				> 100	> 100	> 100				
CC12OC(C(=O)C13CCC3)C1C(=O)c3ccc4c(ccc5ccccc54)c3C(=O)C12 (stereo unspecified)	3.65	8.82	3270	16	4.2	17.2	12	35.9	11.6	32.9	36.1	> 100	10.7	39.3	15.2			2990		
